Data taken from patent US20240368121A1, “ESTROGEN RECEPTOR DEGRADERS, PHARMACEUTICAL COMPOSITIONS THEREOF, AND THEIR THERAPEUTIC APPLICATIONS” (BioTheryX, Inc., priority 2021, published 2024).

Assays:
MCF7 cells = assay: Cell viability assay ([…]-GLO, 6-day treatment); type: cell-based; conditions: Homo sapiens, MCF7, 144 h; MCF-7 cells, 6 days, CTG; read-out: Inhibition of Cancerous Cells IC50 MCF-7
Procedure: A compound provided herein was evaluated for its anticancer activity in MCF7 and T47D cells. MCF7 and T47D cells were cultured at 37° C. in a humidified 5% C02 environment in MEM or RPMI, supplemented with 10% FBS with insulin, respectively. The cells were plated in 384-well microplates at a density of 1,000 cells per well in their respective maintenance media. The cells were treated with the compound by a 10-point dose response curve for 6 days, during which, the medium and compound were refreshed once. After the 6-day treatment, the cell viability was assessed using […]-GLO (CTG) reagent. Luminescence was measured with a microplate reader.

ERα = target: T1, ERα (Homo sapiens, UniProt P03372); assay: Protein degradation assay: ERα in MCF-7 cells via western blot; type: cell-based; conditions: 6 h; for ERα Protein Degradation 1 nM: 1 nM compound; for ERα Protein Degradation 10 nM: 10 nM compound; for ERα Protein Degradation 100 nM: 100 nM compound
T1 construct: degrading an ERα in MCF-7 cells via a western blot; endogenous in cells; host or cells: MCF-7
T1 sequence (P03372 1-595): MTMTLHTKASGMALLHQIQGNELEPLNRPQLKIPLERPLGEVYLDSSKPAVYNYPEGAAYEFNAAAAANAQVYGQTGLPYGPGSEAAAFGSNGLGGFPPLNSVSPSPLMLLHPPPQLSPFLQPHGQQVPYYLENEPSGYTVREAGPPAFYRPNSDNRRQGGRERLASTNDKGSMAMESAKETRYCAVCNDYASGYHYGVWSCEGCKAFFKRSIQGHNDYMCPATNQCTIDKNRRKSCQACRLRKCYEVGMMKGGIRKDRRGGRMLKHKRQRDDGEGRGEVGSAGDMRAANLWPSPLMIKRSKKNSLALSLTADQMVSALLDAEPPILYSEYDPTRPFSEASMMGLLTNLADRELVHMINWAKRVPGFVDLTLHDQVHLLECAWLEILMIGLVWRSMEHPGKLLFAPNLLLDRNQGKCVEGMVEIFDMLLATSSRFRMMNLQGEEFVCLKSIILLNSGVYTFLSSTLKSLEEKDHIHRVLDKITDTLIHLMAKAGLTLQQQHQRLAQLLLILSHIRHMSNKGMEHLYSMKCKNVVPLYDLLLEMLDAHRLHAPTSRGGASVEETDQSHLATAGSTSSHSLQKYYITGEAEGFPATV
Procedure: A compound provided herein was assessed for its activity in degrading an ERα in MCF-7 cells via a western blot. The MCF7 cells were cultured at 37° C. in a humidified 5% C02 environment in MEM supplemented with 10% FBS with insulin. The cells were seeded in 12-well plates at a density of 300,000 cells per well in maintenance media. Cells were treated with the compound at predetermined concentrations (e.g., 1 nM, 10 nM, 100 nM, and 1 μM) for 6 h. The cells were then washed in PBS and the whole cells were lysed in a cell lysis buffer and incubated for 15 minutes on ice. Cell debris was removed by high-speed centrifugation and the cleared whole cell lysates were prepared for further analysis by a western blot. The whole cell protein extracts were separated on SDS-polyacrylamide gels, transferred to nitrocellulose membranes, and probed with primary antibodies, including anti-ERα antibody and GAPDH antibody for loading control. The membranes were subsequently washed and probed with secondary antibodies for chemiluminescence, followed by imaging on a BIORAD CHEMIDOC Imaging System. The results are summarized in Table 2, where “A” represents a percentage degradation value of no less than 50%; “B” represents a percentage degradation value of less than 50% and no less than 25%; “C” represents a percentage degradation value of less than 25% and no less than 10%; and “D” represents a percentage degradation value of less than 10%.

IC50 (MCF7 cells) | Structure (SMILES) | ERα Protein Degradation 1 nM (ERα) | ERα Protein Degradation 10 nM (ERα) | ERα Protein Degradation 100 nM (ERα)
130 pM | Cn1nc([C@H]2CCC(=O)NC2=O)c2ccc(OCC(=O)N3CCN(CCCCOc4ccc([C@@H]5c6ccc(O)cc6CC[C@@H]5c5ccccc5)cc4)CC3)cc21 [Compound B26, (R)-3-(6-(2-(4-(4-(4-((1R,2S)-6-Hydroxy-2-phenyl-1,2,3,4-tetrahydronaphthalen-1-yl)phenoxy)butyl)piperazin-1-yl)-2-oxoethoxy)-1-methyl-1H-indazol-3-yl)piperidine-2,6-dione] | – | – | –
50 pM | O=C1CCC(N2Cc3sc(C4CCN(CCCCOc5ccc([C@@H]6c7ccc(O)cc7CC[C@@H]6c6ccccc6)cc5)CC4)cc3C2=O)C(=O)N1 (stereo partly drawn) [Compound A20, 3-(2-(1-(4-(4-((1R,2S)-6-Hydroxy-2-phenyl-1,2,3,4-tetrahydronaphthalen-1-yl)-phenoxy)butyl)piperidin-4-yl)-4-oxo-4,6-dihydro-5H-thieno[2,3-c]pyrrol-5-yl)piperidine-2,6-dione] | D (a percentage degradation value of less than 10%) | D (a percentage degradation value of less than 10%) | D (a percentage degradation value of less than 10%)
136000 pM | Cn1nc(C2CCC(=O)NC2=O)c2ccc(OCC(=O)N3CCN(CCCCOc4ccc(CC5(C)C(c6ccc(O)cc6)=Nc6ccc(O)cc65)cc4)CC3)cc21 (centres unmarked) [Compound D5, 3-(6-(2-(4-(4-(4-((5-Hydroxy-2-(4-hydroxyphenyl)-3-methyl-3H-indol-3-yl)-methyl)phenoxy)butyl)piperazin-1-yl)-2-oxoethoxy)-1-methyl-1H-indazol-3-yl)piperidine-2,6-dione] | C (a percentage degradation value of less than 25% and no less than 10%) | D (a percentage degradation value of less than 10%) | C (a percentage degradation value of less than 25% and no less than 10%)
569000 pM | CC1(Cc2ccc(OCCCCN3CCN(C(=O)COc4ccc5c(c4)CN(C4CCC(=O)NC4=O)C5=O)CC3)cc2)C(c2ccc(O)cc2)=Nc2ccc(O)cc21 (centres unmarked) [Compound D3, 3-(5-(2-(4-(4-(4-((5-Hydroxy-2-(4-hydroxyphenyl)-3-methyl-3H-indol-3-yl)-methyl)phenoxy)butyl)piperazin-1-yl)-2-oxoethoxy)-1-oxoisoindolin-2-yl)piperidine-2,6-dione] | D (a percentage degradation value of less than 10%) | D (a percentage degradation value of less than 10%) | D (a percentage degradation value of less than 10%)
– | CC1(Cc2ccc(OCCCCN3CCN(C(=O)COc4cccc5c4CN(C4CCC(=O)NC4=O)C5=O)CC3)cc2)C(c2ccc(O)cc2)=Nc2ccc(O)cc21 (centres unmarked) [Compound D1, 3-(4-(2-(4-(4-(4-((5-hydroxy-2-(4-hydroxyphenyl)-3-methyl-3H-indol-3-yl)-methyl)phenoxy)butyl)piperazin-1-yl)-2-oxoethoxy)-1-oxoisoindolin-2-yl)piperidine-2,6-dione] | D (a percentage degradation value of less than 10%) | D (a percentage degradation value of less than 10%) | D (a percentage degradation value of less than 10%)
360 pM | Cc1c(-c2ccc(O)cc2)n(Cc2ccc(N3CCC(CCN4CCN(c5ccc6c(C7CCC(=O)NC7=O)nn(C)c6c5)CC4)CC3)cc2)c2ccc(O)cc12 (centres unmarked) [Compound E18, 3-(6-(4-(2-(1-(4-((5-Hydroxy-2-(4-hydroxyphenyl)-3-methyl-1H-indol-1-yl)-methyl)phenyl)piperidin-4-yl)ethyl)piperazin-1-yl)-1-methyl-1H-indazol-3-yl)piperidine-2,6-dione] | – | – | –
– | O=C1CCC(N2Cc3c(cc(F)cc3C3CCN(CCCCOc4ccc([C@H]5c6ccc(O)cc6CC[C@H]5c5ccccc5)cc4)CC3)C2=O)C(=O)N1 (stereo partly drawn) [Compound A12, 3-(6-Fluoro-4-(1-(4-(4-((1S,2R)-6-hydroxy-2-phenyl-1,2,3,4-tetrahydro-naphthalen-1-yl)phenoxy)butyl)piperidin-4-yl)-1-oxoisoindolin-2-yl)piperidine-2,6-dione] | C (a percentage degradation value of less than 25% and no less than 10%) | C (a percentage degradation value of less than 25% and no less than 10%) | C (a percentage degradation value of less than 25% and no less than 10%)
280 pM | O=C1CCC(N2Cc3c(csc3C3CCN(CCCCCCOc4ccc([C@@H]5c6ccc(O)cc6CC[C@@H]5c5ccccc5)cc4)CC3)C2=O)C(=O)N1 (stereo partly drawn) [Compound A18, 3-(1-(1-(6-(4-((1R,2S)-6-Hydroxy-2-phenyl-1,2,3,4-tetrahydronaphthalen-1-yl)-phenoxy)hexyl)piperidin-4-yl)-4-oxo-4H-thieno[3,4-c]pyrrol-5(6H)-yl)piperidine-2,6-dione] | – | – | –
270 pM | Cc1c(-c2ccc(O)cc2)n(Cc2ccc(N3CCC(CN4CCN(C(=O)COc5ccc6c(C7CCC(=O)NC7=O)nn(C)c6c5)CC4)CC3)cc2)c2ccc(O)cc12 (centres unmarked) [Compound E15, 3-(6-(2-(4-((1-(4-((5-hydroxy-2-(4-hydroxyphenyl)-3-methyl-1H-indol-1-yl)-methyl)phenyl)piperidin-4-yl)methyl)piperazin-1-yl)-2-oxoethoxy)-1-methyl-1H-indazol-3-yl)-piperidine-2,6-dione] | – | – | –
800 pM | Cc1c(-c2ccc(O)cc2)n(Cc2ccc(N3CCC(CN4CCN(c5ccc6c(C7CCC(=O)NC7=O)nn(C)c6c5)CC4)CC3)cc2)c2ccc(O)cc12 (centres unmarked) [Compound E17, 3-(6-(4-((1-(4-((5-Hydroxy-2-(4-hydroxyphenyl)-3-methyl-1H-indol-1-yl)-methyl)phenyl)piperidin-4-yl)methyl)piperazin-1-yl)-1-methyl-1H-indazol-3-yl)piperidine-2,6-dione] | – | – | –
– | O=C1CCC(N2Cc3cc(C4CCN(CCCCOc5ccc([C@H]6c7ccc(O)cc7CC[C@H]6c6ccccc6)cc5)CC4)c(F)cc3C2=O)C(=O)N1 (stereo partly drawn) [Compound A13, 3-(6-Fluoro-5-(1-(4-(4-((1S,2R)-6-hydroxy-2-phenyl-1,2,3,4-tetrahydro-naphthalen-1-yl)phenoxy)butyl)piperidin-4-yl)-1-oxoisoindolin-2-yl)piperidine-2,6-dione] | C (a percentage degradation value of less than 25% and no less than 10%) | B (a percentage degradation value of less than 50% and no less than 25%) | C (a percentage degradation value of less than 25% and no less than 10%)
– | CC1(Cc2ccc(OCCCCN3CCN(C(=O)COc4ccc(N5CCC(=O)NC5=O)cc4)CC3)cc2)C(c2ccc(O)cc2)=Nc2ccc(O)cc21 (centres unmarked) [Compound D9, 1-(4-(2-(4-(4-(4-((5-Hydroxy-2-(4-hydroxyphenyl)-3-methyl-3H-indol-3-yl)-methyl)phenoxy)butyl)piperazin-1-yl)-2-oxoethoxy)phenyl)dihydropyrimidine-2,4(1H,3H)-dione] | D (a percentage degradation value of less than 10%) | D (a percentage degradation value of less than 10%) | D (a percentage degradation value of less than 10%)
– | CC1(Cc2ccc(OCCCCN3CCN(c4ccc5c(c4)CN(C4CCC(=O)NC4=O)C5=O)CC3)cc2)C(c2ccc(O)cc2)=Nc2ccc(O)cc21 (centres unmarked) [Compound D2, 3-(5-(4-(4-(4-((5-Hydroxy-2-(4-hydroxyphenyl)-3-methyl-3H-indol-3-yl)-methyl)phenoxy)butyl)piperazin-1-yl)-1-oxoisoindolin-2-yl)piperidine-2,6-dione] | D (a percentage degradation value of less than 10%) | D (a percentage degradation value of less than 10%) | D (a percentage degradation value of less than 10%)
